# Measured values reported in patent publication US11000033B2, “Ketone or oxime compound, and herbicide” (NISSAN CHEMICAL CORPORATION, priority 2014, dated 2021).
# Columns and labels:
# Type in all cases: in vivo
# [1] = system: rice; assay: Test Example 4: effect on crop by soil treatment (symbol b); conditions: application herbicide amount 320 g/ha
# Procedure, shortened: (§1)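 Steps: fill box with sterilized diluvial soil; sow seed spot-like; cover with ~1.5 cm soil; grow in greenhouse (25° C. to 30° C.).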
# [2] = system: Abutilon theophrasti; assay: Test Example 5: herbicidal effect by foliage application, plastic box (symbol M); conditions: 320 g/ha, 3 weeks after application
# Procedure, shortened: (§2)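 After sowing into sterilized diluvial soil and growing two weeks under glass at 25° C. to 30° C., seedlings receive a uniform foliar spray of diluted emulsion. Damage is judged visually three weeks on.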
# [3] = system: wheat; assay: Test Example 5: effect on crop by foliage application, plastic box (symbol e); conditions: 320 g/ha, 3 weeks after application
# Procedure, shortened: (§3)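 Diluvial soil, sterilized and boxed (21 × 13 × 7 cm), received spot-sown seed covered by about 1.5 cm soil; plants were then greenhouse-grown at 25–30° C.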
# [4] = system: Digitaria ciliaris; assay: Test Example 5: herbicidal effect by foliage application, plastic box (symbol F); conditions: 320 g/ha, 3 weeks after application
# Procedure, shortened: as §2
# [5] = system: rapeseed; assay: Test Example 4: effect on crop by soil treatment (symbol g); conditions: application herbicide amount 320 g/ha
# Procedure, shortened: as §1
# [6] = system: Echinochloa crus-galli var. crus-galli; assay: Test Example 4: herbicidal effect by soil treatment (symbol H); conditions: application herbicide amount 320 g/ha
# Procedure, shortened: (§4)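 Seeds were sown in sterilized diluvial soil, covered with about 1.5 cm of soil, and the soil surface was sprayed with a water-diluted emulsion of the compound at a predetermined rate. Plants grew in a greenhouse at 25° C. to 30° C.; effects were scored visually 3 weeks after application.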
# [7] = system: Avena fatua; assay: Test Example 4: herbicidal effect by soil treatment (symbol I); conditions: application herbicide amount 320 g/ha
# Procedure, shortened: as §4
# [8] = system: Lolium multiflorum Lam.; assay: Test Example 4: herbicidal effect by soil treatment (symbol K); conditions: application herbicide amount 320 g/ha
# Procedure, shortened: as §4
# [9] = system: Amaranthus retroflexus; assay: Test Example 5: herbicidal effect by foliage application, plastic box (symbol N); conditions: 320 g/ha, 3 weeks after application
# Procedure, shortened: as §2
# [10] = system: rapeseed; assay: Test Example 5: effect on crop by foliage application, plastic box (symbol g); conditions: 320 g/ha, 3 weeks after application
# Procedure, shortened: as §3
# [11] = system: directly sowed rice plant; assay: Test Example 3: effect on crop by foliage application, Wagner pot (symbol b); conditions: application herbicide amount 320 g/ha
# Procedure, shortened: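 Greenhouse culture at 25–30 °C of seeded rice, Cyperus difformis, Leptochloa chinensis and Echinochloa crus-galli var. crus-galli, in alluvial soil held under 0.1–0.5 cm of water in a Wagner pot.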
# [12] = system: Lolium multiflorum Lam.; assay: Test Example 5: herbicidal effect by foliage application, plastic box (symbol K); conditions: 320 g/ha, 3 weeks after application
# Procedure, shortened: as §2
# [13] = system: Veronica persica; assay: Test Example 5: herbicidal effect by foliage application, plastic box (symbol R); conditions: 320 g/ha, 3 weeks after application
# Procedure, shortened: as §2
# [14] = system: Avena fatua; assay: Test Example 5: herbicidal effect by foliage application, plastic box (symbol I); conditions: 320 g/ha, 3 weeks after application
# Procedure, shortened: as §2
# [15] = system: Apera spica-venti; assay: Test Example 4: herbicidal effect by soil treatment (symbol L); conditions: application herbicide amount 320 g/ha
# Procedure, shortened: as §4
# [16] = system: Chenopodium album; assay: Test Example 5: herbicidal effect by foliage application, plastic box (symbol O); conditions: 320 g/ha, 3 weeks after application
# Procedure, shortened: as §2
# [17] = system: Stellaria media; assay: Test Example 5: herbicidal effect by foliage application, plastic box (symbol P); conditions: 320 g/ha, 3 weeks after application
# Procedure, shortened: as §2
# [18] = system: Apera spica-venti; assay: Test Example 5: herbicidal effect by foliage application, plastic box (symbol L); conditions: 320 g/ha, 3 weeks after application
# Procedure, shortened: as §2
# [19] = system: Alopecurus myosuroides; assay: Test Example 4: herbicidal effect by soil treatment (symbol J); conditions: application herbicide amount 320 g/ha
# Procedure, shortened: as §4
# [20] = system: Digitaria ciliaris; assay: Test Example 4: herbicidal effect by soil treatment (symbol F); conditions: application herbicide amount 320 g/ha
# Procedure, shortened: as §4
# [21] = system: beet; assay: Test Example 4: effect on crop by soil treatment (symbol f); conditions: application herbicide amount 320 g/ha
# Procedure, shortened: as §1
# [22] = system: Monochoria vaginalis; assay: Test Example 2: herbicidal activity, application during weed generation in submerged conditions (symbol C); conditions: Table 23; application herbicide amount 320 g/ha; grade 0-5 by criteria of Test Example 1
# Procedure, shortened: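 Flooded-soil post-emergence test: emulsion of compound, water-diluted to target rate, applied to paddy water surface at 1–2 leaf stage of mixed-sown weeds (alluvial soil, 4 cm water, 25–30° C. greenhouse); visual rating 3 weeks after application.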
SMILES,"Effect on crop grade, b: directly sowed rice plant [1]","M: Abutilon theophrasti, herbicidal effect (criteria of Test Example 1) [2]","e: wheat, effect on crop (criteria of Test Example 1) [3]","F: Digitaria ciliaris, herbicidal effect (criteria of Test Example 1) [4]","Effect on crop grade, g: rapeseed [5]","Herbicidal effect grade, H: Echinochloa crus-galli var. crus-galli [6]","Herbicidal effect grade, I: Avena fatua [7]","Herbicidal effect grade, K: Lolium multiflorum Lam. [8]","N: Amaranthus retroflexus, herbicidal effect (criteria of Test Example 1) [9]","g: rapeseed, effect on crop (criteria of Test Example 1) [10]","effect on crop b (directly sowed rice plant), grade 0-5 [11]","K: Lolium multiflorum Lam., herbicidal effect (criteria of Test Example 1) [12]","R: Veronica persica, herbicidal effect (criteria of Test Example 1) [13]","I: Avena fatua, herbicidal effect (criteria of Test Example 1) [14]","O: Chenopodium album, herbicidal effect (criteria of Test Example 1) [16]","P: Stellaria media, herbicidal effect (criteria of Test Example 1) [17]","L: Apera spica-venti, herbicidal effect (criteria of Test Example 1) [18]","Herbicidal effect grade, J: Alopecurus myosuroides [19]","Herbicidal effect grade, F: Digitaria ciliaris [20]","Effect on crop grade, f: beet [21]",further results
CC(=O)CC1CC(O)=C(c2c(C)cc(Oc3ccc(C(F)(F)F)cn3)cc2C)C1=O (stereo not drawn) [7-019],0 (Herbicidal ratio of 5% or lower (almost no effect)),0 (Herbicidal ratio of 5% or lower (almost no effect)),0 (Herbicidal ratio of 5% or lower (almost no effect)),3 (Herbicidal ratio of 40% or higher and lower than 70%),0 (Herbicidal ratio of 5% or lower (almost no effect)),0 (Herbicidal ratio of 5% or lower (almost no effect)),0 (Herbicidal ratio of 5% or lower (almost no effect)),0 (Herbicidal ratio of 5% or lower (almost no effect)),0 (Herbicidal ratio of 5% or lower (almost no effect)),2 (Herbicidal ratio of 20% or higher and lower than 40%),3 (Herbicidal ratio of 40% or higher and lower than 70%),3 (Herbicidal ratio of 40% or higher and lower than 70%),0 (Herbicidal ratio of 5% or lower (almost no effect)),0 (Herbicidal ratio of 5% or lower (almost no effect)),0 (Herbicidal ratio of 5% or lower (almost no effect)),0 (Herbicidal ratio of 5% or lower (almost no effect)),3 (Herbicidal ratio of 40% or higher and lower than 70%),0 (Herbicidal ratio of 5% or lower (almost no effect)),3 (Herbicidal ratio of 40% or higher and lower than 70%),0 (Herbicidal ratio of 5% or lower (almost no effect)),"Herbicidal effect grade, L: Apera spica-venti [15]: 0 (Herbicidal ratio of 5% or lower (almost no effect))"
CON=C(C)CC1CC(O)=C(c2c(C)cc(-c3cc(Cl)cc(Cl)c3)cc2C)C1=O (stereo not drawn) [6-087],0 (Herbicidal ratio of 5% or lower (almost no effect)),0 (Herbicidal ratio of 5% or lower (almost no effect)),1 (Herbicidal ratio of 5% or higher and lower than 20%),5 (Herbicidal ratio of 90% or more (almost completely withered)),1 (Herbicidal ratio of 5% or higher and lower than 20%),5 (Herbicidal ratio of 90% or more (almost completely withered)),0 (Herbicidal ratio of 5% or lower (almost no effect)),3 (Herbicidal ratio of 40% or higher and lower than 70%),0 (Herbicidal ratio of 5% or lower (almost no effect)),4 (Herbicidal ratio of 70% or higher and lower than 90%),5 (Herbicidal ratio of 90% or more (almost completely withered)),4 (Herbicidal ratio of 70% or higher and lower than 90%),4 (Herbicidal ratio of 70% or higher and lower than 90%),0 (Herbicidal ratio of 5% or lower (almost no effect)),0 (Herbicidal ratio of 5% or lower (almost no effect)),1 (Herbicidal ratio of 5% or higher and lower than 20%),3 (Herbicidal ratio of 40% or higher and lower than 70%),4 (Herbicidal ratio of 70% or higher and lower than 90%),5 (Herbicidal ratio of 90% or more (almost completely withered)),0 (Herbicidal ratio of 5% or lower (almost no effect)),"Herbicidal effect grade, C: Monochoria vaginalis [22]: 0 (Herbicidal ratio of 5% or lower (almost no effect))"
CON=C(C)CC1CC(OC(=O)C(C)CSC)=C(c2c(C)cc(-c3ccc(Cl)cc3)cc2C)C1=O (stereo not drawn) [6-086],1 (Herbicidal ratio of 5% or higher and lower than 20%),3 (Herbicidal ratio of 40% or higher and lower than 70%),5 (Herbicidal ratio of 90% or more (almost completely withered)),5 (Herbicidal ratio of 90% or more (almost completely withered)),4 (Herbicidal ratio of 70% or higher and lower than 90%),5 (Herbicidal ratio of 90% or more (almost completely withered)),4 (Herbicidal ratio of 70% or higher and lower than 90%),5 (Herbicidal ratio of 90% or more (almost completely withered)),0 (Herbicidal ratio of 5% or lower (almost no effect)),4 (Herbicidal ratio of 70% or higher and lower than 90%),5 (Herbicidal ratio of 90% or more (almost completely withered)),5 (Herbicidal ratio of 90% or more (almost completely withered)),5 (Herbicidal ratio of 90% or more (almost completely withered)),5 (Herbicidal ratio of 90% or more (almost completely withered)),5 (Herbicidal ratio of 90% or more (almost completely withered)),4 (Herbicidal ratio of 70% or higher and lower than 90%),5 (Herbicidal ratio of 90% or more (almost completely withered)),5 (Herbicidal ratio of 90% or more (almost completely withered)),5 (Herbicidal ratio of 90% or more (almost completely withered)),1 (Herbicidal ratio of 5% or higher and lower than 20%),"Herbicidal effect grade, C: Monochoria vaginalis [22]: 3 (Herbicidal ratio of 40% or higher and lower than 70%)"
